The assay addresses Prostate-specific membrane antigen (PSMA) (Homo sapiens, UniProt Q04609). As to the kind of experiment: inhibition of purified PSMA enzymatic activity. It counts as biochemical.

Chain of Prostate-specific membrane antigen (PSMA) (Q04609 whole entry): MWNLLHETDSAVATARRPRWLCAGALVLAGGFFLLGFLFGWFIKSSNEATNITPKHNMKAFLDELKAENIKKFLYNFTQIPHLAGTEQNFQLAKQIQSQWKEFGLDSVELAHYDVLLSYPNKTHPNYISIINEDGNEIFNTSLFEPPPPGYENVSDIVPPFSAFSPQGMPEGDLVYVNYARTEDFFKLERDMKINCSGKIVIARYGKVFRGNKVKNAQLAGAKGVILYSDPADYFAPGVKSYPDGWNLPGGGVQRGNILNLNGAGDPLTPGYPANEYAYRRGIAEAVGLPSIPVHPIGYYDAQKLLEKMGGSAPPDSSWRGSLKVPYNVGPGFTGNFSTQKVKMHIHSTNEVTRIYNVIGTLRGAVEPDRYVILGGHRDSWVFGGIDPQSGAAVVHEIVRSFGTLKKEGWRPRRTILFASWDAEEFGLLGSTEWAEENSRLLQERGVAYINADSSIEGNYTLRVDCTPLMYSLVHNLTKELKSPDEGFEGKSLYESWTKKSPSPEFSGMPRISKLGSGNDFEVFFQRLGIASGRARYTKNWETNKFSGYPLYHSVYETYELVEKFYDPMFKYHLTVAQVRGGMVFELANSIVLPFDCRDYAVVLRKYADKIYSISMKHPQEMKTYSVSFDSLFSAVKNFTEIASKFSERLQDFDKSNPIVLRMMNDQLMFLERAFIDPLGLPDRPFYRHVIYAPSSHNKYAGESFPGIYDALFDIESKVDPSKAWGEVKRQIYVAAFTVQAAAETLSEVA

As a reminder, the IC50 is the concentration that inhibits the measured activity by half. The low end stands for greater potency in that assay, the high end for weaker potency in that assay. biotin-PEG12-CTT54 came in with an IC50 of 10 nM. In the case of biotin-PEG4-CTT54 it was 2.53 nM; in that of biotin-CTT54, 1.21 nM.

For the origin of these results see paper PMC3526141 (Bioorganic & medicinal chemistry letters, 2012).
